In publication PMC5772648, “Targeted NUDT5 inhibitors block hormone signaling in breast cancer cells” (Nature Communications, 2018):
Several values for one entry are separate records, joined by “and”; a condition that tells them apart may be missing. Identical values can stand only once.

Experiments:
NUDT5 in HL-60 cells = molecular target: T1, NUDT5 in HL-60 cells (Homo sapiens, UniProt Q9UKK9); assay: drug affinity responsive target stability (DARTS); assay type: cell-based; settings: 0.74 and 2.2 µM, 4 h, HL-60 cells in culture
T1 construct: endogenous in cells; host or cells: HL-60
Method: Target engagement was also determined by drug affinity responsive target stability (DARTS)[33]. HL-60 cells were treated in culture with DMSO (0.1% v/v) or TH5427 at 0.7 or 2.2 µM for 4 h. Following two PBS washes, the cells were lysed with M-PER extraction buffer (ThermoFisher) supplemented with protease inhibitor cocktail (Roche). The lysates were divided into 20 µg aliquots and followed by digestion with pronase at the indicated protein to pronase ratios for 30 min at room temperature. Samples were prepared for western blotting and NUDT5 stabilization was compared with SOD1 as a loading control.

MTH1 = MTH1 (Homo sapiens, UniProt P36639); assay: phosphohydrolase selectivity, malachite green assay; assay type: biochemical; design: His-tag (N); made in house; host or cells: E. coli BL21 (DE3) R3 pRARE2
Method: The selectivity assay for TH5427 against similar pyrophosphohydrolases was performed with MTH1, NUDT9, NUDT2, NUDT12, NUDT14, NUDT15, NUDT18, ITPase, dCTPase and dUTPase[9]. All analyses were performed by malachite green assay following 30 min incubation at room temperature in reaction buffer (100 mM Tris Acetate, pH 7.5, 40 mM NaCl, 10 mM MgAc, 1 mM DTT) with 100 µM TH5427 and preferred substrates for each enzyme (4.75 nM MTH1 with 100 µM dGTP, 8 nM NUDT15 with 100 µM dGTP, 8 nM NUDT2 with 16 µM AP4A, 2 nM NUDT5 with 50 µM ADPR, 20 nM NUDT9 with 50 µM ADPR, 20 nM NUDT12 with 50 µM NADH, 2 nM NUDT14 with 50 µM ADPR, 200 nM NUDT18 with 50 µM 8-oxo-dGTP, 0.2 nM ITPase with […], 35 nM dCTPase with 35 µM dCTP, and 1 nM dUTPase with 12.5 µM dUTP). MTH1, NUDT15, NUDT18, ITPase, dCTPase and dUTPase reactions were coupled with 0.2 U/mL pyrophosphatase, while NUDT2, NUDT5, NUDT9, NUDT12, and NUDT14 reactions were coupled by bovine intestinal phosphatase (10 U/mL).

NUDT5 in T47D cells = molecular target: T2, NUDT5 in T47D cells (Homo sapiens, UniProt Q9UKK9); assay: intact cell CETSA in T47D cells; assay type: cell-based; settings: 1.5 µM TH5427, 83 °C
T2 construct: endogenous in cells; host or cells: T47D (T47D^WT)
Method: For CETSA experiments with cells treated in culture, 1 × 10^6 HL-60 were treated with DMSO (0.1 % v/v final) or 20 µM compound for 3 h at 37 °C and 5% CO2 in a humidified incubator. T47D^WT cells were treated instead with 80 µM TH1659, 15 µM TH5423/5424 and 1.5 µM TH5427. The cells were harvested, washed twice with PBS and resuspended in TBS with protease inhibitors, as above. Heating was identical as before, except that immediately following heating, the cell suspensions were snap frozen in a dry ice/ethanol bath and freeze-thawed, as previously, to lyse cells. Centrifugation at 20 000 × g for 20 min at 4 °C removed cellular debris and protein aggregates, and lysates were prepared for western blotting.

HL-60 or U-2 OS cells = assay: cell viability by resazurin; assay type: cell-based; settings: 72 h, Supplementary Figs. 7 and 10b (HL-60, U-2 OS, T47D)
Method: Cell viability was assessed by resazurin[9]. 5000 HL-60 cells (or 1000 U-2 OS/2000 T47D cells) were seeded per well on a 96-well plate. The following morning, compounds (or the equivalent amount of DMSO) were added to obtain the final concentrations indicated and the cells were incubated at 37 °C for 72 h with resazurin added at 0.02 mg/mL for the last 2–6 h. Resorufin fluorescence was detected at […] with a Hidex Sense fluorescent plate reader. Viability curves were fit using the sigmoidal dose-response (variable slope) function in GraphPad Prism 7.

purified NUDT5 = molecular target: T3, purified NUDT5 (Homo sapiens, UniProt Q9UKK9); assay: biochemical conversion of 32P-PAR to ATP and AMP by PARG and NUDT5 (TLC); settings: 0.6 µM, with NUDT5, PARG and PPi
T3 construct: His-tag (N); made in house; host or cells: E. coli BL21 (DE3) R3 pRARE2
Method: ^32P-NAD-labeled PAR was prepared as follows: 5 µg of purified GST-PARP1 was incubated with 2 µg of activated calf thymus DNA and 10 mM NAD +/^32P-NAD (Perkin-Elmer) at a ratio of 1:10 for 30 min at 25 °C and brought to a final volume of 100 µL with PARP reaction buffer (50 mM Tris, pH 7.5, 50 mM NaCl, 0.5 mM DTT, 0.1% Triton X-100 and protease inhibitors)[23]. After incubation, 0.4 µg of DNase was added to obtain DNA-free probes and the reaction was precipitated using TCA. The pellet was washed with acetone, dried and resuspended in 100 µl (10 mM Tris-HCl, pH 8.0, 1 mM EDTA, 0.1 % SDS, 100 µg/mL of Proteinase K) and incubated for 1 h at 37 °C, after which radio-labeled PAR was extracted using phenol/chloroform and ethanol precipitation. The pellet was resuspended in 50 µL (10 mM Tris-HCl, pH 8.0, 1 mM EDTA) and used for subsequent biochemical analyses.
Enzymatic conversion of radiolabeled ^32P-PAR by PARG and NUDT5 was performed using purified radio-labeled PAR (as described above) with the addition of recombinant bovine PARG in PAR glycohydroxylation buffer (PGB; 10 mM HEPES, pH 7.5, 150 mM KCl, 10 mM MgCl2)[23]. Recombinant PARG was added at the beginning of the reaction to a 10 µL final volume and incubated for 1 h at 25 °C. Recombinant NUDT5, pyrophosphate and/or TH5427 (0.6 µM) were added as indicated and incubated for an additional hour. […]

[1] = SafetyScreen 44 and ExpresSDiversity kinase panels (Eurofins Cerep Panlabs); design: species or system human; settings: 10 µM
Method: TH5427 selectivity was also studied with the SafetyScreen44™ Panel and ExpresSDiversity Kinase Panel from Eurofins Cerep Panlabs at 10 µM, according to the company’s procedures.

Cn1c(=O)c2c(nc(N3CCNCC3)n2Cc2nnc(-c3ccc(Cl)c(Cl)c3)o2)n(C)c1=O [TH5427]
NUDT5 stabilization against protease degradation (NUDT5 in HL-60 cells): stabilized NUDT5 against exogenous protease degradation
inhibition at 100 µM (MTH1; 100 µM): 82%
IC50 (MTH1; dose-response, malachite green assay): 20.3 µM and 20 µM
selectivity for NUDT5 over MTH1 (MTH1; in vitro, ratio of IC50 values): 690 fold
NUDT5 stabilization in T47D cells (NUDT5 in T47D cells): demonstrated the best ability to stabilize NUDT5 in T47D cells
toxicity in cell lines tested (HL-60 or U-2 OS cells): non-toxic in cell lines tested up to 20 µM
synthesis of ATP and AMP from 32P-PAR (purified NUDT5): inhibited the biochemical synthesis of ATP and AMP from ^32P-PAR
off-target interactions in panels [1]: only displayed a few significant interactions
